10 compounds from PMC12088000, “Design, synthesis and in silico molecular modelling studies of 2-Hydrazineyl-2-oxoethyl-4-(1H-pyrrol-1-yb) benzoate derivatives: a potent dual DHFR and ENR-reductase inhibitors with antitubercular, antibacterial and cytotoxic potential” (PLOS One, 2025) can be followed below.

The target of one test is MtDHFR (Mycobacterium tuberculosis, UniProt P9WNX1). As to the kind of experiment: biochemical. Type of test: biochemical.
In the next test the test system is S. aureus ATCC 29213. As to the kind of experiment: Antibacterial activity, broth microdilution (S. aureus). As to conditions: Staphylococcus aureus, ATCC29213, read-out: S. aureus ATCC 29213 (Gram +ve) MIC. Background: Dilution methods test growth across graded concentrations, often in twofold steps.
Test [1] has as its target InhA enzyme from M. tuberculosis (Mycobacterium tuberculosis, UniProt P9WGR1). As to the kind of experiment: InhA inhibition assay. Type of test: biochemical. As to conditions: read-out: % InhA Inhibition at 50 µM.
For the next test, the system named is M. tuberculosis H37Rv. As to the kind of experiment: Antitubercular activity, Microplate Alamar Blue test (MABA). As to conditions: n = 3; for MIC: Mycobacterium tuberculosis, H37RV. Type of test: cell-based, Mycobacterium tuberculosis. (Alamar Blue is a resazurin reagent that responds to reducing activity.)
Test [2] has as its system human lung cancer cell line A549. As to the kind of experiment: MTT-based cytotoxicity. As to conditions: Homo sapiens, A549; MTT assay. Type of test: cell-based. How it is done: The cytotoxic effects of seventeen selected molecules were assessed against the A549 human lung adenocarcinoma cell line using the MTT assay. Cisplatin served as the reference drug for comparison. Lower IC50 values indicate higher cytotoxicity.
The cytotoxic activity (IC50) of selected compounds against A549 (lung adenocarcinoma) MV cell-lines was evaluated by performing cellular conversion of MTT [3-(4,5-dimethylthiazo-2-yl)-2,5-diphenyl-tetrazolium bromide] into a formazan product. This evaluation was conducted up to a concentration of 50 mg/mL using the Promega Cell Titre 96 non-radioactive cell proliferation assay, with cisplatin serving as the positive control. Cytotoxicity is commonly quantified by determining the IC50 value, which represents the quantity of a substance that reduces the optical density of treated cells by 50% compared to untreated cells, as measured by the MTT experiment. The results are presented as IC50 values (mean ± standard error of the mean (SEM) obtained from three separate and independent measurements.
In general terms: Tetrazolium assays rely on reduction of a dye to a coloured formazan, in cell work by metabolically active cells.

Another test deals with E. coli ATCC 25922. As to the kind of experiment: Antibacterial activity, broth microdilution (E. coli). The settings on record: for MIC: Escherichia coli, ATCC25922, read-out: E. coli ATCC 25922 (Gram –ve) MIC, broth microdilution.

Values after ≈ are worked out from the molar mass of the structure shown.

Chain of MtDHFR (P9WNX1 whole entry): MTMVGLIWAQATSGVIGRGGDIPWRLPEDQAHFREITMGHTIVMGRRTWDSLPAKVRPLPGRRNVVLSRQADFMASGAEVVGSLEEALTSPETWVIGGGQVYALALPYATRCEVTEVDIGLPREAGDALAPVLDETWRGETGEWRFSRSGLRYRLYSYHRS
Chain of InhA enzyme from M. tuberculosis (P9WGR1 whole entry, looked up): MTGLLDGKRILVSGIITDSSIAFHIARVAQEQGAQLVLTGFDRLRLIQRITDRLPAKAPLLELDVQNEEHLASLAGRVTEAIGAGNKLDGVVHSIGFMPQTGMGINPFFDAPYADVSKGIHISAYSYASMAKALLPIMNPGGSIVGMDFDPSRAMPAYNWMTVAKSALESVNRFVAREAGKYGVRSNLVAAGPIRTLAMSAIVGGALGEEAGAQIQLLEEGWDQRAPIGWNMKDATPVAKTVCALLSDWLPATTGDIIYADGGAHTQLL
Protocol for E. coli ATCC 25922: (§1) All twenty-eight molecules were evaluated for in vitro antimicrobial activities that were assessed against Gram +ve and Gram -ve strains.
(§2) The antibacterial inhibitory effects of all compounds were assessed using the broth microdilution method, with ciprofloxacin serving as the reference medication.
Protocol for S. aureus ATCC 29213: as §1, §2

Broadly, the IC50 is the concentration needed to halve the response being measured. The low end stands for greater potency, the high end for weaker potency. As a reminder, the MIC is the smallest concentration in the dilution series that meets the test's criterion for growth inhibition. For orientation: inhibition means the percentage by which the read-out fell short of the control. Consider `O=C(COC(=O)c1ccc(-n2cccc2)cc1)NN=Cc1ccc(Cl)cc1` [Compound 6d, 2-(2-(4-chlorobenzylidene)hydrazinyl)-2-oxoethyl 4-(1H-pyrrol-1-yl)benzoate], for which the IC50 against MtDHFR worked out at 62 µM; in test [2], 262 ± 0.7 µg/mL (≈ 686 µM). Also, the “MtDHFR inhibition, in words, compared with trimethoprim” value on MtDHFR is reported as “moderate inhibition”. In addition, the MIC stood at 3.12 µg/mL (≈ 8.17 µM) in the test with S. aureus ATCC 29213, 0.8 µg/mL (≈ 2.1 µM) against M. tuberculosis H37Rv and 1.6 µg/mL (≈ 4.19 µM) in the test on E. coli ATCC 25922. Besides, the inhibition at 50 µM in test [1] was 18%. For the same compound, the “M. tuberculosis H37Rv MIC values” with M. tuberculosis H37Rv came out at 0.8 µg/mL.
`C/C(=N\NC(=O)COC(=O)c1ccc(-n2cccc2)cc1)c1ccc(Br)cc1` [Compound 5b, 2-(2-(1-(4-bromophenyl)ethylidene) hydrazineyl)-2-oxoethyl-4-(1H-pyrrol-1-yl) benzoate]: the results for the IC50 (on MtDHFR; in test [2]) were 23 µM and 266 ± 0.3 µg/mL (≈ 604 µM), respectively. For the same compound, on MtDHFR, the “MtDHFR inhibition, in words, compared with trimethoprim” value is listed as “greater inhibition characteristics than trimethoprim”. The MIC with S. aureus ATCC 29213 was 1.6 µg/mL (≈ 3.63 µM); against M. tuberculosis H37Rv, 0.8 µg/mL (≈ 1.82 µM); in the test with E. coli ATCC 25922, 0.4 to 0.8 µg/mL (≈ 0.908 to 1.82 µM). In addition, in test [1], the inhibition at 50 µM amounted to 22%. For the same compound, in the test on M. tuberculosis H37Rv, the “M. tuberculosis H37Rv MIC values” was 0.8 µg/mL. The “E. coli ATCC 25922 (Gram –ve) MIC” value in the test with E. coli ATCC 25922 (broth microdilution) came to 0.4 µg/mL.
Regarding `CC(=NNC(=O)COC(=O)c1ccc(-n2cccc2)cc1)c1ccccc1` [Compound 5a, 2-oxo-2-(2-(1-phenylethylidene)hydrazinyl)ethyl 4-(1H-pyrrol-1-yl)benzoate], the IC50 against MtDHFR is 95 µM; in test [2], 225 ± 0.3 µg/mL (≈ 623 µM). For the same compound, the MIC in the test with S. aureus ATCC 29213 was determined as 12.5 µg/mL (≈ 34.6 µM); against M. tuberculosis H37Rv, 1.6 µg/mL (≈ 4.43 µM); in the test on E. coli ATCC 25922 it was 1.6 µg/mL (≈ 4.43 µM). The inhibition at 50 µM in test [1] is 26%.
For the compound `O=C(OCC(=O)n1[nH]c(=O)c2ccccc2c1=O)c1ccc(-n2cccc2)cc1` [Compound 4a, 2-(1,4-dioxo-3,4-dihydrophthalazin-2(1H)-yl)-2-oxoethyl 4-(1H-pyrrol-1-yl)benzoate], the values for the IC50 (against MtDHFR; in test [2]) were 23 µM and 315 ± 0.3 µg/mL (≈ 809 µM), respectively. Moreover, the “MtDHFR inhibition, in words, compared with trimethoprim” value on MtDHFR is reported as “greater inhibition characteristics than trimethoprim”. The MIC was determined as 12.5 µg/mL (≈ 32.1 µM) in the test with S. aureus ATCC 29213, 1.6 µg/mL (≈ 4.11 µM) with M. tuberculosis H37Rv and 3.12 µg/mL (≈ 8.01 µM) in the test on E. coli ATCC 25922. Besides, the inhibition at 50 µM in test [1] is 43%.
For `O=C(OCC(=O)n1[nH]c(=O)c2c(Br)c(Br)c(Br)c(Br)c2c1=O)c1ccc(-n2cccc2)cc1` [Compound 4c, 2-oxo-2-(5,6,7,8-tetrabromo-1,4-dioxo-3,4-dihydrophthalazin-2(1H)-yl)ethyl 4-(1H-pyrrol-1-yl)benzoate], the 50% inhibitory concentration (IC50) at MtDHFR was 21 µM; in test [2], 287 ± 0.7 µg/mL (≈ 407 µM). In addition, at MtDHFR, the “MtDHFR inhibition, in words, compared with trimethoprim” value is given as “greater inhibition characteristics than trimethoprim”. For the same compound, the minimal inhibitory concentration (MIC) with S. aureus ATCC 29213 was 6.25 µg/mL (≈ 8.87 µM); against M. tuberculosis H37Rv, 1.6 µg/mL (≈ 2.27 µM); in the test with E. coli ATCC 25922, 0.8 µg/mL (≈ 1.13 µM). Further, the inhibition at 50 µM in test [1] was found to be 51%.
On to `Cc1cc(=O)n(C(=O)COC(=O)c2ccc(-n3cccc3)cc2)[nH]c1=O` [Compound 4f, 2-(4-methyl-3,6-dioxo-2,3-dihydropyridazin-1(6H)-yl)-2-oxoethyl 4-(1H-pyrrol-1-yl)benzoate], for which the IC50 against MtDHFR is 35 µM; in test [2], 258 ± 0.1 µg/mL (≈ 730 µM). Also, the “MtDHFR inhibition, in words, compared with trimethoprim” value at MtDHFR is listed as “greater inhibition characteristics than trimethoprim”. Moreover, the MIC worked out at 3.12 µg/mL (≈ 8.83 µM) in the test with S. aureus ATCC 29213, 1.6 µg/mL (≈ 4.53 µM) with M. tuberculosis H37Rv and 0.8 µg/mL (≈ 2.26 µM) in the test on E. coli ATCC 25922. Further, the inhibition at 50 µM in test [1] turned out to be 23%.
With `O=C(COC(=O)c1ccc(-n2cccc2)cc1)NN=Cc1ccc([N+](=O)[O-])cc1` [Compound 6c, 2-(2-(4-nitrobenzylidene)hydrazinyl)-2-oxoethyl 4-(1H-pyrrol-1-yl)benzoate], the figures for the IC50 (against MtDHFR; in test [2]) were 133 µM and 296 ± 0.3 µg/mL (≈ 754 µM), respectively. The figures for the MIC in the test with S. aureus ATCC 29213, against M. tuberculosis H37Rv and in the test on E. coli ATCC 25922 were 6.25 µg/mL (≈ 15.9 µM), 1.6 µg/mL (≈ 4.08 µM) and 1.6 µg/mL (≈ 4.08 µM), respectively. The inhibition at 50 µM in test [1] came out at 9%.
Regarding `CC(=NNC(=O)COC(=O)c1ccc(-n2cccc2)cc1)c1ccc(F)cc1` [Compound 5l, 2-(2-(1-(4-fluorophenyl)ethylidene)hydrazinyl)-2-oxoethyl 4-(1H-pyrrol-1-yl)benzoate], the concentration for half-maximal inhibition (IC50) on MtDHFR amounted to 65 µM; in test [2], 241 ± 0.6 µg/mL (≈ 635 µM). The “MtDHFR inhibition, in words, compared with trimethoprim” value at MtDHFR is listed as “moderate inhibition”. In addition, the values for the MIC in the test on S. aureus ATCC 29213, with M. tuberculosis H37Rv and with E. coli ATCC 25922 were 12.5 µg/mL (≈ 32.9 µM), 1.6 µg/mL (≈ 4.22 µM) and 3.12 µg/mL (≈ 8.22 µM), respectively. Further, the inhibition at 50 µM in test [1] was 46%.
Consider `CC(=NNC(=O)COC(=O)c1ccc(-n2cccc2)cc1)c1cccc([N+](=O)[O-])c1` [Compound 5g, 2-(2-(1-(3-nitrophenyl)ethylidene)hydrazinyl)-2-oxoethyl 4-(1H-pyrrol-1-yl)benzoate], for which the concentration for half-maximal inhibition (IC50) against MtDHFR worked out at 132 µM; in test [2], 249 ± 0.9 µg/mL (≈ 613 µM). Moreover, the MIC with S. aureus ATCC 29213 was found to be 6.25 µg/mL (≈ 15.4 µM); with M. tuberculosis H37Rv, 1.6 µg/mL (≈ 3.94 µM); in the test on E. coli ATCC 25922, 1.6 µg/mL (≈ 3.94 µM). Moreover, the inhibition at 50 µM in test [1] worked out at 34%.
Regarding `O=C(OCC(=O)n1[nH]c(=O)c2c(Cl)c(Cl)c(Cl)c(Cl)c2c1=O)c1ccc(-n2cccc2)cc1` [Compound 4b, 2-oxo-2-(5,6,7,8-tetrachloro-1,4-dioxo-3,4-dihydrophthalazin-2(1H)-yl)ethyl 4-(1H-pyrrol-1-yl)benzoate], the IC50 turned out to be 25 µM against MtDHFR and 319 ± 0.4 µg/mL (≈ 605 µM) in test [2]. Moreover, the “MtDHFR inhibition, in words, compared with trimethoprim” value at MtDHFR is “greater inhibition characteristics than trimethoprim”. For the same compound, the minimum inhibitory concentration (MIC) in the test with S. aureus ATCC 29213 turned out to be 6.25 µg/mL (≈ 11.9 µM); in the test on M. tuberculosis H37Rv, 1.6 µg/mL (≈ 3.04 µM); in the test with E. coli ATCC 25922 it was 0.8 µg/mL (≈ 1.52 µM). In test [1], the inhibition at 50 µM is 29%.
